How the values were obtained:
[1] = tested on: mice subjected to controlled cortical impact injury; assay: Modified neurological severity score (mNSS) after CCI; type: in vivo
Method: (§1) All animal procedures were approved by the Animal Research Committee at Cheng Hsin General Hospital (Animal permit number […] 101-08), and all procedures complied with the Guide for the Care and Use of Laboratory Animals published by the US National Institutes of Health (NIH Publication No. 85-23, revised 1996). Animals were housed under a 12-h light/dark cycle and at constant temperature (21-25°C) and humidity (45-50%). They were allowed free access to pellet chow and water. TBI in mice was induced by a CCI injury model as previously described. Briefly, 8-week-old male C57BL/6 mice (weighing 22-25 g) were anesthetized through the use of intraperitoneal injection of sodium pentobarbital (65 mg/kg; Rhone Merieux, Harlow, UK) and placed in a stereotaxic frame. A 5 mm craniotomy was performed over the right parietal cortex, centered on the coronal suture and 0.1 mm lateral to the sagittal suture, and injury to dura was avoided. […] Body temperature was monitored throughout the surgery by a rectal probe; temperature was maintained at 37.0±0.5°C using a heated pad. […] To determine the optimal dose of salidroside, a pilot study was performed using 2 different doses (20 and 50 mg/kg) administered 10 min after injury, and neurological deficits and tissue damage were evaluated as the main outcomes. […]

[2] = Body weight after CCI; type: in vivo, mice; conditions: P>0.05
[3] = tested on: mice subjected to controlled cortical impact injury; assay: Beam walk test after CCI; type: in vivo
Method: as §1

Compound: OC[C@H]1O[C@@H](OCCc2ccc(O)cc2)[C@H](O)[C@@H](O)[C@@H]1O [SALD, salidroside]
- mNSS scores versus vehicle group ([1]; 20 mg/kg ip 10 min after CCI, days 4, 14, 21, 28, all P<0.05): significant lower
- mNSS scores versus vehicle group ([1]; 50 mg/kg ip 10 min after CCI, days 14, 21, 28, P<0.05): significantly lower
- body weight versus vehicle ([2]; 20 mg/kg ip after CCI): No significant difference
- body weight versus vehicle ([2]; 50 mg/kg ip after CCI): No significant difference
- beam walk latency versus vehicle group ([3]; 20 mg/kg ip 10 min after CCI, days 4 and 21, P<0.05 and 0.01): significant difference
- beam walk latency, treatment effect versus vehicle ([3]; 50 mg/kg ip 10 min after CCI, P<0.05): significant only at day 4
